{
  "source": "patent US20260325490A1",
  "about": "“ORAL FORMULATIONS OF EDARAVONE AND IMPROVED METHOD OF MANUFACTURING THEREOF” (BDR PHARMACEUTICALS INTERNATIONAL PRIVATE LIMITED, priority 2022, published 2026)",
  "key": {"[1]": {"details": "cited from earlier work"}, "[2]": {"test": "Chemical stability of Edaravone (hydrolysis, oxidation)", "type": "physicochemical", "details": "aqueous solution, compared to the powdered form", "description": "It may be noted that the efficacy of Edaravone has seen an undisputed success since its inception in the therapeutic category of stroke management. Edaravone per se has wide applicability and has potential to be used for more therapeutic indications. The injectable dosage form has been a limiting factor in case of increased use of this product. Importantly, developing an oral dosage form of Edaravone is a challenging process due to its less soluble and less permeable (BCS Class-IV product) nature. Further, an injectable dosage form has inherent difficulty in terms of its usage post hospitalization. […] The inventors of the present invention during development have noted that it was difficult to stabilize Edaravone."}, "[3]": {"details": "cited from earlier work", "remark": "listed apart in the source"}},
  "data": [
    {"smiles": "CC1=NN(c2ccccc2)C(=O)C1", "note": "[Edaravone, 3-methyl-1-phenyl-2-pyrazolin-5-one]", "values": [
      {"measurement": "Solubility in acetic acid", "setting": "[1]; acetic acid", "result": "freely soluble"},
      {"measurement": "Solubility in diethyl ether", "setting": "[1]; diethyl ether", "result": "slightly soluble"},
      {"measurement": "Solubility in ethanol", "setting": "[1]; ethanol", "result": "freely soluble"},
      {"measurement": "Solubility in methanol", "setting": "[1]; methanol", "result": "freely soluble"},
      {"measurement": "Solubility in water", "setting": "[1]; water", "result": "slightly soluble"},
      {"measurement": "Decomposition by oxidation", "setting": "[2]", "result": "easily decompose by oxidation"},
      {"measurement": "Lipid permeability", "setting": "[3]", "result": "lower lipid permeability"},
      {"measurement": "Bio-pharmaceutics Classification System (BCS) class", "setting": "[3]; poor solubility in water and lower lipid permeability", "result": "Class IV"}
    ]}
  ]
}
